Test results as given in US9481648B2, “Kinase inhibitors” (Respivert Limited, priority 2013, dated 2016).
Read-outs that look alike come from different tables or passages of the source. Blank lines part the entries; values can stand above or below the compound they belong to.

What was measured:
CYP2C9 = CYP2C9 (Homo sapiens (Human), UniProt P11712); test: CYP2C9 inhibition study; assay type: in vitro ADME; details: 5 μM (precipitation at 15 μM)
Method: (§1) Assessment of certain in vitro ADME (absorption, distribution, metabolism, and excretion) parameters for certain compounds of the invention was conducted by BioFocus (Saffron Walden, UK).

CYP3A4 = CYP3A4 (Homo sapiens (Human), UniProt P08684); test: CYP3A4 inhibition study; assay type: in vitro ADME; details: 15 μM
CYP3A4, sequence (P08684 whole entry): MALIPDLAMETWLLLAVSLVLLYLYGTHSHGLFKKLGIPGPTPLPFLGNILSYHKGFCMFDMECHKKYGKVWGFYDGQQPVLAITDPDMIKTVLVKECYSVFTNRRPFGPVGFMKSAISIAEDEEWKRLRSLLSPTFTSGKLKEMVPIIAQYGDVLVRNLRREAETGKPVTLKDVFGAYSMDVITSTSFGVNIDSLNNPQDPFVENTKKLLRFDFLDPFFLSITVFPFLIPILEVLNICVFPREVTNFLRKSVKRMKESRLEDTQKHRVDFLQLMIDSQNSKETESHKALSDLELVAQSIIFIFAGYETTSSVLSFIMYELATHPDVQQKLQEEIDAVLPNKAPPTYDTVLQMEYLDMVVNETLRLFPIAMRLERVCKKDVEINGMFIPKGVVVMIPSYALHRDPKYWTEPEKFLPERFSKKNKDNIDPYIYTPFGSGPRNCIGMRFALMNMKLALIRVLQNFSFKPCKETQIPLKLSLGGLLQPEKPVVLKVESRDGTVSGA
Method: as §1

GSK 3α = GSK 3α (Homo sapiens (Human), UniProt P49840); test: GSK 3α enzyme inhibition (FRET, Z-LYTE; Method 2); assay type: biochemical; details: read-out: IC50 Values for Enzyme Inhibition GSK3α
GSK 3α, sequence (P49840 whole entry): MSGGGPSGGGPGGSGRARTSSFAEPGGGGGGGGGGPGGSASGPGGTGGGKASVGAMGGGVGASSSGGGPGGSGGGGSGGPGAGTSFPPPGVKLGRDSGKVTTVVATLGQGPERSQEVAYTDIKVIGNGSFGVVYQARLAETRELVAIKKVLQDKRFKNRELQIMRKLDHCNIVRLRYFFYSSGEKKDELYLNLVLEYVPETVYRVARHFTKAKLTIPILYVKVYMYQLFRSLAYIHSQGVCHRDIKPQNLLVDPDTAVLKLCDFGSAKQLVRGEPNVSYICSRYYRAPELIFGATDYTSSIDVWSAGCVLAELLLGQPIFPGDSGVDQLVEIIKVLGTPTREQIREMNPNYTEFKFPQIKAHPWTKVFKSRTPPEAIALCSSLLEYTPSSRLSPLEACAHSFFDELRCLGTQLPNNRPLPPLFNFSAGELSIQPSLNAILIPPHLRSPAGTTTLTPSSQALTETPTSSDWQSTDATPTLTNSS
Summary of the method: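 Phosphorylation was taken from the donor (coumarin) to acceptor (fluorescein) emission ratio after 1 h protease development, which cleaves only unphosphorylated peptide. Before that, peptide (8 μM stock) plus ATP (40 μM stock) reacted 1 h. This followed a 105 min RT preincubation of GSK3-α with compound stocks of 10–0.01 μg/mL.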

PBMCs = test: LPS-induced TNFα/IL-8 release in PBMC cells (assay b); assay type: cell-based, human; details: LPS-stimulated, read-out: IC50 Values for Inhibition of Cytokine Release PBMCs IL-8
Method: Peripheral blood mononuclear cells (PBMCs) from healthy subjects are separated from whole blood using a density gradient (Lymphoprep, Axis-Shield Healthcare). The PBMCs are seeded in 96 well plates and treated with compounds at the desired concentration for 2 hours before addition of 1 ng/mL LPS (Escherichia Coli 0111:B4 from Sigma Aldrich) for 24 hours under normal tissue culture conditions (37° C., 5% CO2). The supernatant is harvested for determination of IL-8 and TNFα concentrations by sandwich ELISA (Duo-set, R&D systems) and read on the fluorescence microplate reader (Varioskan® Flash, ThermoFisher Scientific).

[1] = Hydrolytic stability study; assay type: physicochemical; details: for % Parent Remaining: DMSO:water (3:1), 1 mg/mL
Method: Chemical stability of compounds of the invention was assessed in a mixture of DMSO and water (3:1) at a test compound concentration of 1 mg/mL
Sample Preparation • A 1.0 mg sample of test compound was dissolved in 750 μL of DMSO. Water (250 μL) was added slowly, ensuring no precipitation occurred.
Recording Stability • A 50 μL aliquot of the test solution was removed and analysed in duplicate by 5 μL HPLC injections. The peak area for the test compound was recorded following manual integration of the corresponding UV trace. • The test solution was heated to 60° C., with stirring, and 50 μL aliquots removed for HPLC analysis at 5 and 24 h timepoints.

CYP2C9, sequence (P11712 whole entry): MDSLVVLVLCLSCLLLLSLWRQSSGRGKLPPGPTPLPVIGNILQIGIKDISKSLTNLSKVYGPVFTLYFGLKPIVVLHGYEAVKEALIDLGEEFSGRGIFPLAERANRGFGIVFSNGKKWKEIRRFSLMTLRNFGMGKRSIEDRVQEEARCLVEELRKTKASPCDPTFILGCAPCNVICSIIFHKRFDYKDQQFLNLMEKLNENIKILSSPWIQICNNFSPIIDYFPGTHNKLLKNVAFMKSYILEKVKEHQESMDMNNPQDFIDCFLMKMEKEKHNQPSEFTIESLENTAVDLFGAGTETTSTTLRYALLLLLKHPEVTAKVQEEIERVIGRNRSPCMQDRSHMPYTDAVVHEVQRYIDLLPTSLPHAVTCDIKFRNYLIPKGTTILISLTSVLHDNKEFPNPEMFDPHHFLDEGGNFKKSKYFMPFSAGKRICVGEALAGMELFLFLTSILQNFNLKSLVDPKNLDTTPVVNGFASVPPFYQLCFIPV

% Inh (inhibition at 5 μM reported instead) (CYP2C9; CYP2C9, 0 min preincubation): 31^[†] % | % Inh (inhibition at 5 μM reported instead) (CYP2C9; CYP2C9, 30 min preincubation): 66^[†] % | 15 μM % Inh (CYP3A4; CYP3A4, 0 min preincubation): 41% | 15 μM % Inh (CYP3A4; CYP3A4, 30 min preincubation): 92%
SMILES: C#CC(C)(C)c1cc(NC(=O)Nc2ccc(Oc3ccnc(Nc4cc(C)c5[nH]ncc5c4)n3)c3ccccc23)n(-c2ccc(C)cc2)n1 [Ref Cpd A]

IC50 (GSK 3α): 2520 nM
SMILES: COCCOCCOCCOCCNC(=O)c1cc(Nc2cc(Oc3ccc(NC(=O)Nc4cc(C(C)(C)C)cc(NS(C)(=O)=O)c4OC)c4ccccc34)ccn2)cc(OC)c1 [Example 85(v), 3-[[4-[[4-[[5-tert-Butyl-3-(methanesulfonamido)-2-methoxyphenyl]-carbamoylamino]-1-naphthyl]oxy]-2-pyridyl]amino]-5-methoxy-N-[2-[2-[2-(2-methoxyethoxy)ethoxy]ethoxy]-ethyl]benzamide]
IC50 (PBMCs): 0.4 nM

IC50 (GSK 3α): 6280 nM
SMILES: COc1c(NC(=O)Nc2ccc(Oc3ccnc(Nc4ccccc4)c3)c3ccccc23)cc(C(C)(C)C)cc1C(=O)N[C@H]1CCOC1 [84(d), 3-[[4-[(2-Anilino-4-pyridyl)oxy]-1-naphthyl]carbamoylamino]-5-tert-butyl-2-methoxy-N-[(3S)-tetrahydrofuran-3-yl]benzamide]
IC50 (PBMCs; Homo sapiens, PBMC): 11.5 nM

decomposition under the conditions of the hydrolytic stability experiment ([1]; 1 mg/mL in DMSO and water (3:1), 60° C., 5 and 24 h): substantial decomposition | % Parent Remaining ([1]; 0 min): 100% | % Parent Remaining ([1]; 60° C., 300 min): 82% | % Parent Remaining ([1]; 60° C., 1440 min): 36%
SMILES: C#Cc1cc(Nc2nccc(Oc3ccc(NC(=O)Nc4cc(C(C)C)nn4-c4ccc(C)cc4)c4ccccc34)n2)cc(C(=O)NCCN2CCOCC2)c1 [Reference Compound B, 3-ethynyl-5-((4-((4-(3-(3-isopropyl-1-(p-tolyl)-1H-pyrazol-5-yl)ureido)naphthalen-1-yl)oxy)pyrimidin-2-yl)amino)-N-(2-morpholinoethyl)benzamide, reference compound]
